The record followed here is patent publication US20090004106A1, “Radioligands for the 5 -Ht1b Receptor” (priority 2006, published 2009).

In this series the test system is 5-HT1B receptor. The series can be described thus: PET measurements in monkeys (radioligand brain uptake and 5-HT1B receptor binding). The class given is in vivo, Cynomolgus monkey. The protocol:
Cynomolgus monkey can be used to determine the suitability of [^11C] labeled raidoligands as a radioligand for PET-determination of 5HT^1B-receptor binding and occupancy. Anaesthesia can be induced and maintained by repeated intramuscular injections of a mixture of ketamine (3-4 mg/kg per h Ketalar, Parke-Davis) and xylazine hydrochloride (1-2 mg/kg per h Rompun® Vet., Bayer, Sweden) for the duration of each measurement. A fixation device can be used for the positioning of the monkey head during the PET-measurements. Body temperature can be controlled by Bair Hugger—Model 505 (Arizant Healthcare Inc, MN).
Radioactivity in the brain can be measured with the Siemens ECAT Exact HR47 system that can be used in the three-dimensional model. The system covers an axial distance of 15 cm. The transaxial resolution of the reconstructed images is about 3.8 mm full width at half-maximum (FWHM) and the axial resolution 4.0 mm FWHM. […]
In each PET-measurement a sterile physiological phosphate buffer (pH=7.4) solution containing about 1.4 mCi (50 MBq) of [^11C] labeled compound can be injected as a bolus into a sural vein during 2 s with simultaneous start of PET-data acquisition. Radioactivity in brain can be measured continuously for 93 minutes according to a pre-programmed series of 15 frames starting immediately after IV injection of [^11C] labeled compound. […]
During all PET measurements venous blood samples (about 0.5 ml) can be taken at 4 time points (at about 4, 15, 30 and 45 minutes) and plasma radioactivity concentration determined in a well counter, cross-calibrated with the camera. […]
The ROIs can be drawn on the PET summation images representing radioactivity measured from 9 minutes after intravenous injection to the end of the measurement. […] Radioactivity is calculated for the sequence of time frames, corrected for the radioactivity decay, and plotted versus time. For each region a time-activity curve can be generated and radioactivity expressed as nCi/ml. […]

On to “[^11C] 8-(4-methylpiperazin-1-yl)-5-methylchrom-2-en-4-one-2-(4-morpholinophenyl)carboxamide) [Example 3]”, for which the “specific binding to the areas of interest” value (primate brain PET, non specific defined as cerebellum) is listed as “binds specifically to the areas of interest”. Also, the “specific to non-specific ratios” value (primate brain PET, ratio of ROI to cerebellum (non specific defined as cerebellum)) is recorded as “high enough specific to non-specific ratios”. Besides, the “entry of radioligand into brain” value (primate brain, PET, IV bolus of [11C] labeled compound) is on record as “rapidly entered the primate brain”.
